According to patent US20030119748A1 (Idun Pharmaceuticals, Inc., priority 1996, published 2003):

Target: T1, mICE (Mus musculus, UniProt P29452)
T1 sequence (P29452 119-402): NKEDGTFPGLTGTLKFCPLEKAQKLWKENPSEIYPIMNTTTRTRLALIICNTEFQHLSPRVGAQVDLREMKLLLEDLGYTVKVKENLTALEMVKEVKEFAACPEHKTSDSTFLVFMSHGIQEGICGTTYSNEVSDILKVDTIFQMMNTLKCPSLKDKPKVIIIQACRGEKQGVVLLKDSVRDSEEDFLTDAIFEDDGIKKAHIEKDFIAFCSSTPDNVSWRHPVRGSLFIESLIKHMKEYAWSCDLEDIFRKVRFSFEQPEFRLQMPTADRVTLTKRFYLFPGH
Assay: Dissociation constant Ki for irreversible inhibitors, continuous assay (Example 1B)
Assay type: biochemical
Details: compounds of Formula B and Formula C, procedure of Example 1B
Description: B. Determination of the Dissociation Constant K1 and Irreversible Rate Constant k3 for Irreversible Inhibitors
For the irreversible inhibition of a ICE/ced-3 Family Protease enzyme with a competitive irreversible inhibitor; using the model represented by the following formulas: [drawing 4]
The product formation at time t may be expressed as: [drawing 5]
where E, I, EI, and E-I denote the active enzyme, inhibitor, non-covalent enzyme-inhibitor complex and covalent enzyme-inhibitor adduct, respectively. The K1 value is the overall dissociation constant of reversible binding steps, and k3 is the irreversible rate constant. The [S] and Ks values are the substrate concentration and the dissociation constant of the substrate bound to the enzyme, respectively. [E]^T is the total enzyme concentration.
The above equations were used to determine the K1 and k3 values of a given inhibitor bound to a ICE/ced-3 family protease. Thus, a continuous assay was run for sixty minutes at various concentrations of the inhibitor and the substrate. The assay was formulated essentially the same as described in Example 1A above, except that the reaction was initiated by adding the enzyme to the substrate-inhibitor mixture. The K1 and k3 values were obtained by simulating the product AMC formation as a function of time according to Equation 1. The reference compound for this assay was Cbz-ValAlaAsp-CH2F.

Ki [µM] | Compound
< 1 | CC(C)C(NC(=O)c1cc2ccccc2n1CCCc1ccccc1)C(=O)NC(CC(=O)O)C(=O)CF (centres unmarked) [Example 52, N-[(1-(3′-Phenylpropyl)Indole-2-Carbonyl)Valinyl]-3-Amino-4-Oxo-5-Fluoropentanoic Acid]
< 1 | CC(C)[C@H](NC(=O)c1cc2ccccc2n1-c1ccccc1)C(=O)NC(CC(=O)O)C(=O)CF (some centres unmarked) [Example 55, N-[(1-Phenylindole-2-Carbonyl)Valinyl]-3-Amino-4-Oxo-5-Fluoropentanoic Acid]
